Measured values taken from patent publication US7714014B2, “Targeting GLI proteins in human cancer by small molecules” (The Regents of the University of California, priority 2005, dated 2010).

Legend:
SK-Mel-28 (melanoma) = test: Apoptosis analysis (Annexin V FITC, flow cytometry); assay type: cell-based, human
Description: (§1) Apoptosis was analyzed by using an Annexin V FITC Apoptosis Detection Kit (Biosource, Camarillo, Calif.), according to the manufacturer's protocol. After treatment with different small molecule compounds at various concentrations for about 3 days, cells were harvested by trypsinization, stained and immediately analyzed by flow cytometry (FACScan; Decton Dickinson, Franklin Lake, N.J.). Early apoptotic cells with exposed phosphatidylserine but intact cell membranes will bind to Annexin V-FITC, but not propidium iodide (PI). Cells in necrotic or late apoptotic stages will be labeled with both Annexin V-FITC and PI. “% apoptotic cells” or “% apoptosis” refers to the combined early and late apoptotic cells.
(§2) Dose titration experiments of small molecule compound FN1-8 was performed using the melanoma cell lines A375, G361, SK-Mel-2, SK-Mel-5, and SK-Mel-28. A 375 cells were plated in 6-well plates and incubated with DM SO (control) or 2 μM, 5 μM, 10 μM, 20 μM, and 40 μM of FN1-8, respectively, for 3 days. A dramatic and dose-dependent cell killing in this cell line was observed when FN1-8 was added at 10 μM or more (data not shown). […] After 4 days of incubation with 20 μM FN1-8, approximately 20% of the Malme-3M cells, 28% of SK-Mel-2 cells, 36% of SK-Mel-5 cells, 41% of A375 cells, and 17% of G361 cells underwent apoptosis, while less than 3% of normal skin fibroblast cells underwent apoptosis under the same conditions (Table 3).

G361 (melanoma) = test: as above; assay type: cell-based, human
Description: as §1, §2

A375 (melanoma) = test: as above; assay type: cell-based, human
Description: as §1, §2

[1] = system: Malme-3 (normal skin cells); test: as above; assay type: cell-based, human; conditions: 10 μM
Description: as §1, §2

SK-Mel-2 (melanoma) = test: as above; assay type: cell-based, human
Description: as §1, §2

Malme-3M (melanoma) = test: as above; assay type: cell-based, human; conditions: 10 μM
Description: as §1, §2

SK-Mel-5 (melanoma) = test: as above; assay type: cell-based, human
Description: as §1, §2

NSCLC H460 tumor = test: Mouse Xenograft Model (NSCLC H460); assay type: in vivo
Description: The small molecule compound FN1-8 was tested in vivo in the mouse xenograft model bearing human cancer cells. Briefly, female athymic nude mice strain NCRNU-M (5-10 weeks old, 20-25 grams in weight; Taconic, Germantown, N.Y.) was maintained in pathogen-free conditions. Three human cancer cell lines: NSCLC H460, melanoma LOX, (both showing Gli3 activation), and colon cancer HT29 (no Gli3 activation, as a negative control), were used. Ten mice were used in each group and injected s.c. with 3×10^6 cancer cells in the dorsal area in a volume of 100 μl. After inoculation, human cancer cells were allowed to grow in mice for 7 days to become visible tumor nodules. Animals were then injected with small molecule compound FN1-8 at a dose of 50 mg/kg body weight (1 mg/mouse per day). DMSO alone was used as control. The compounds and controls were adjusted in 40 ul volume for i.p. injection in the abdomens of the mice. One mouse was sacrificed within 1 hour after the compound injection (after 6 injections) and its blood was collected. Then mass spectrometry was used to analyze the compound level in the blood sample to confirm the compound absorption into the blood stream of the mice. […] Tumor size was measured every three days, and tumor volumes were calculated using width (x) and length (y) (x^2y/2, where x<y). […]
In vivo efficacy study of small molecule compound FN1-8 were performed using a Mouse Xenograft Model (NSCLC H460). […] Tumor size (length and width according to their shapes) was measured with a caliper every three days. Tumor volumes were calculated using the equation […].
Three weeks after the initial tumor inoculation and the treatment as described above, tumors were dissected from the mice of each group and their weights were measured using a scale.
The in vivo efficacy study of small molecule compounds FN1-5 and FN1-8 in the Mouse Xenograft Model (NSCLC H460) was repeated using lower doses of the compounds. […] 24 days after the initial tumor inoculation, tumors were dissected from the mice of each group and their weights were measured using a scale. […]

[2] = Pharmacokinetic analysis in mice (i.p. injection); assay type: in vivo, mouse
Description: Three mice were i.p. injected in the abdomens with small molecule compounds FN1-5 at a dose of 30 mg/kg body weight. Then plasma was collected from the tail-vein of each mouse at 10 min, 2 hours, 6 hours and 24 hours after FN1-5 injection.
Similarly, the pharmacokinetic properties of small molecule compound FN1-8 were analyzed (FIG. 21B). Comparing the uptake of FN1-8 to FN1-5, the uptake of FN1-5 after i.p injection seems to be better, by about 2 fold.

| Structure (SMILES) | % of apoptotic cells (SK-Mel-28 (melanoma); SK-Mel-28, 10 μM) [%] | % of apoptotic cells (SK-Mel-28 (melanoma); SK-Mel-28, 20 μM) [%] | % of apoptotic cells (G361 (melanoma); G361, 10 μM) [%] | % of apoptotic cells (G361 (melanoma); G361, 20 μM, 4 days of incubation) [%] | % of apoptotic cells (A375 (melanoma); A375, 10 μM) [%] | % of apoptotic cells (A375 (melanoma); A375, 20 μM, 4 days of incubation) [%] | % of apoptotic cells [1] [%] | % of apoptotic cells (SK-Mel-2 (melanoma); SK-Mel-2, 10 μM) [%] | % of apoptotic cells (SK-Mel-2 (melanoma); SK-Mel-2, 20 μM, 4 days of incubation) [%] | % of apoptotic cells (Malme-3M (melanoma)) [%] | % of apoptotic cells (SK-Mel-5 (melanoma); SK-Mel-5, 10 μM) [%] | % of apoptotic cells (SK-Mel-5 (melanoma); SK-Mel-5, 20 μM, 4 days of incubation) [%] | tumor growth (NSCLC H460 tumor; 50 mg/kg i.p. daily for 2×6 days) | tumor weight (NSCLC H460 tumor; 50 mg/kg i.p. daily for 2×6 days, three weeks after inoculation) | tumor weight (NSCLC H460 tumor; low dose 15 mg/kg i.p. daily for 2×6 days, 24 days after inoculation) | uptake of FN1-5 relative to FN1-8 ([2]; i.p. injection) | time of uptake into plasma ([2]; i.p., 30 mg/kg) [min] | time within which plasma/serum concentration diminishes ([2]; i.p., 30 mg/kg) [h] |
| --- | --- | --- | --- | --- | --- | --- | --- | --- | --- | --- | --- | --- | --- | --- | --- | --- | --- | --- |
| O=C(NCCc1ccc(O)cc1)C1C(c2ccccc2)=NN(c2ccccc2)C1c1ccccc1 (stereo not drawn) [FN1-8, N-(2-(4-Hydroxyphenyl)ethyl)-1,3,5-triphenyl-4,5-dihydro-pyrazole-4-carboxyamide] | 7.7 | 11.8 | 7.5 | 15.5 | 35.8 | 39.7 | 2.1 | 9 | 25.3 | 10.5 | 7.9 | 34.9 | significantly suppressed | dramatically decreased | decreased |  |  |  |
| O=C(NCCCCCO)C1C(c2ccccc2)=NN(c2ccccc2)C1c1ccccc1 (stereo not drawn) [FN1-5, N-(5-Hydroxypentyl)-1,3,5-triphenyl-4,5-dihydro-pyrazole-4-carboxyamide] |  |  |  |  |  |  |  |  |  |  |  |  |  |  |  | about 2 fold | ≤ 10 | ≤ 24 |
